Reference: US10675258B2, “Method of using gamma-hydroxybutyrate compositions for the treatment of disorders” (Jazz Pharmaceuticals Ireland Limited, priority 2012, dated 2020)

Tests used:
[1] = Maximum solubility of GHB as a function of pH of the aqueous medium; type: physicochemical
Description: It will be understood that the maximum solubility of GHB is affected by the pH of the aqueous medium. For example, at about pH 4, the maximum amount of Na•GHB that can be dissolved is about 450 mg/ml.

[2] = Chemical stability of GHB as a function of pH (GBL formation); conditions: aqueous GHB compositions

Structure (SMILES)	maximum amount that can be dissolved ([1]; aqueous medium at about pH 4)	minimal pH that will dissolve 750 mg/ml GHB ([1]; 750 mg/ml GHB, aqueous medium)	pH at which GBL begins to form [2]
O=C([O-])CCCO.[Na+] [Na•GHB, sodium gamma-hydroxybutyrate]	about 450 mg/ml		
O=C(O)CCCO [GHB, gamma-hydroxybutyrate]		~6.8	≤ 6
